Reference: ChEMBL document CHEMBL1155278, “3,4-Diaryl-isoxazoles and -imidazoles as potent dual inhibitors of p38alpha mitogen activated protein kinase and casein kinase 1delta” (J Med Chem, 2009)
The source made the active and inactive calls. The rule behind the calls is not given here.

Columns and labels:
[1] = Cell cycle arrest in human AC1-M88 cells assessed as accumulation at G2 phase at 0.38 uM after 48 hrs by propidium iodide staining-based FACS analysis; assay type: functional
[2] = target: Casein kinase I isoform delta (Homo sapiens, UniProt P48730); experiment: Inhibition of recombinant CK1delta kinase domain at 10 nM by ATP competitive binding assay
Chain of Casein kinase I isoform delta (P48730 whole entry, looked up, the tested form may be a part, canonical isoform): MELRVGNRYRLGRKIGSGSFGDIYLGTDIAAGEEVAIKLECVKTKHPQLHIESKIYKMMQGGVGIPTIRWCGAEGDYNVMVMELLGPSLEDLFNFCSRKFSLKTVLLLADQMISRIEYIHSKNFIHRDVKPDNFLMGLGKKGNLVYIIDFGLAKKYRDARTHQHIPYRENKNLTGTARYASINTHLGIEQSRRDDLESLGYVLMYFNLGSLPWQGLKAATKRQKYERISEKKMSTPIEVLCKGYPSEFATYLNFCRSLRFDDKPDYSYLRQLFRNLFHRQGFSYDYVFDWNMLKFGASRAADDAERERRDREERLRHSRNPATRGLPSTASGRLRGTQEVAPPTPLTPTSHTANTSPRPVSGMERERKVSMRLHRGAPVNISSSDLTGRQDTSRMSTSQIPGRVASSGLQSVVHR

[3] = test system: Casein kinase I isoform delta (Rattus norvegicus), Q06486 [M82F]; experiment: Inhibition of GST-fused rat CK1delta M82F mutant at 10 nM by Cherenkov counting in presence of 20 uM ATP
Chain of Casein kinase I isoform delta (Rattus norvegicus), Q06486 [M82F] (Q06486 whole entry M82F, the tested form may be a part, canonical isoform): as the sequence (P48730 whole entry, looked up, the tested form may be a part, canonical isoform) above, with M82F, I381V counted along it

[4] = target: Mitogen-activated protein kinase 9 (Homo sapiens) (UniProt P45984); experiment: Inhibition of JNK2 at 10 uM by Cherenkov counting in presence of 20 uM ATP
Chain of Mitogen-activated protein kinase 9 (Homo sapiens) (P45984 whole entry, looked up): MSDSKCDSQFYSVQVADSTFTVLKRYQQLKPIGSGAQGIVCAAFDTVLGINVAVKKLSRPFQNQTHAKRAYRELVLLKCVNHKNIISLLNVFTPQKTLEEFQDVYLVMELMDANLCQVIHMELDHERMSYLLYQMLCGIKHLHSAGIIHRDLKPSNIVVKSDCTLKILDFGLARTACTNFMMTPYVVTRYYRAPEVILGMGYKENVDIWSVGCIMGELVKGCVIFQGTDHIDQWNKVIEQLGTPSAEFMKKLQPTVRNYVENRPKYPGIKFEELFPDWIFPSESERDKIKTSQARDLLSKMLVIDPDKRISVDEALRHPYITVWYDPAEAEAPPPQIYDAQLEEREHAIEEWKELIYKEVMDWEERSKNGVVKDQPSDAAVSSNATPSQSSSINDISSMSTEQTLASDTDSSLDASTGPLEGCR

COc1ccc(/C=C/C(=O)Nc2cc(-c3[nH]c(SC)nc3-c3ccc(F)cc3)ccn2)c(OC)c1
Activity [1]: 3.08%

COc1ccc(/C=C/C(=O)Nc2cc(-c3[nH]c([S+](C)[O-])nc3-c3ccc(F)cc3)ccn2)c(OC)c1 (centres undefined)
inhibition [2]: 10% | inhibition [3]: inactive

CC(C)c1onc(-c2ccc(F)cc2)c1-c1ccncc1
inhibition [4]: 87%
